Source: ChEMBL document CHEMBL5465560, “Selectivity Literature for EUbOPEN Chemogenomic Library” (2024)

Key:
SRSF protein kinase 1 = SRSF protein kinase 1 (Homo sapiens, UniProt Q96SB4); assay: Selectivity interaction (Kinase panel (Invitrogen)) EUB0000639a SRPK1; settings: at 200 nM
[1] = target: T1, Myosin-IIIb (Homo sapiens) (UniProt Q8WXR4); assay: Selectivity interaction (KinomeScan (DiscoverX)) EUB0000092b MYO3B; settings: at 10 µM
T1 sequence (whole entry): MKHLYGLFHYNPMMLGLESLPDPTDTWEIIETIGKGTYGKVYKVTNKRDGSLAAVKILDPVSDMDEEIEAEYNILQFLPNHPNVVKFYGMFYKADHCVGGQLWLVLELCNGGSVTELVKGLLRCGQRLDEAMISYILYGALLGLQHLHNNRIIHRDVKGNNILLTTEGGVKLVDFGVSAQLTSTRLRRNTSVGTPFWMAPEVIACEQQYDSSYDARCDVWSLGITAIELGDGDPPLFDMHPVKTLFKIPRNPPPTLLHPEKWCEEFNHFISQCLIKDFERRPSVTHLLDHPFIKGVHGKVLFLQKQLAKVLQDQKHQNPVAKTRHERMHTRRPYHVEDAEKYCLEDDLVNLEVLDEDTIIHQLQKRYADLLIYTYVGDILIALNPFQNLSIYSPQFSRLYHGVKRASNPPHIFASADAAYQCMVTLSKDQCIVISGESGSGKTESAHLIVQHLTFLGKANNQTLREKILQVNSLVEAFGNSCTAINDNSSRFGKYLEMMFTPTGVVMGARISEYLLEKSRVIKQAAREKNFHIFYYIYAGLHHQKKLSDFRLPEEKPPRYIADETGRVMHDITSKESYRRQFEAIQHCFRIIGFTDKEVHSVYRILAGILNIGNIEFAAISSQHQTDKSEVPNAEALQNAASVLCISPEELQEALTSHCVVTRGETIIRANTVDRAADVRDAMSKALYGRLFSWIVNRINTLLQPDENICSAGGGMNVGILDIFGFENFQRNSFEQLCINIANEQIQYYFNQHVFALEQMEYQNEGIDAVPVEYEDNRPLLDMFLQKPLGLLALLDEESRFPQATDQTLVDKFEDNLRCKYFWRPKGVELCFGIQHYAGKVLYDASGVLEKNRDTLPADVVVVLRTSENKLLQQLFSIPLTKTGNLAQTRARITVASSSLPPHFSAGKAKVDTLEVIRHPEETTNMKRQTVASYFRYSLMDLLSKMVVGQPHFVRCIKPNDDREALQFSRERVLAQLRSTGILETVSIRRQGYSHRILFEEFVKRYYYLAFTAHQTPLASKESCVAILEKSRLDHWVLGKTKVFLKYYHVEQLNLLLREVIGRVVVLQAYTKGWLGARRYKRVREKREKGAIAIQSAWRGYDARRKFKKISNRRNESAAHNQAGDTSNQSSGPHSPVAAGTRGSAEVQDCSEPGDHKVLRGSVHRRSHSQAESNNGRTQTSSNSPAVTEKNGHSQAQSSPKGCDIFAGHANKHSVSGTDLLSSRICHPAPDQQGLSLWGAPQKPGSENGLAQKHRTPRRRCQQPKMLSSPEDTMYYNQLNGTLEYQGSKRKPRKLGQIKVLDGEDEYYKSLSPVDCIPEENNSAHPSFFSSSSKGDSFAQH

[2] = target: Proto-oncogene tyrosine-protein kinase receptor Ret (Homo sapiens, UniProt P07949); assay: Selectivity interaction (Upstate Kinase Profiler service (Millipore)) EUB0000056c RET; settings: at 1 µM
[3] = target: T2, Tyrosine-protein kinase Tec (Homo sapiens) (UniProt P42680); assay: Selectivity interaction (KinomeScan (DiscoverX)) EUB0000655a TEC; settings: at 10 µM
T2 sequence (whole entry): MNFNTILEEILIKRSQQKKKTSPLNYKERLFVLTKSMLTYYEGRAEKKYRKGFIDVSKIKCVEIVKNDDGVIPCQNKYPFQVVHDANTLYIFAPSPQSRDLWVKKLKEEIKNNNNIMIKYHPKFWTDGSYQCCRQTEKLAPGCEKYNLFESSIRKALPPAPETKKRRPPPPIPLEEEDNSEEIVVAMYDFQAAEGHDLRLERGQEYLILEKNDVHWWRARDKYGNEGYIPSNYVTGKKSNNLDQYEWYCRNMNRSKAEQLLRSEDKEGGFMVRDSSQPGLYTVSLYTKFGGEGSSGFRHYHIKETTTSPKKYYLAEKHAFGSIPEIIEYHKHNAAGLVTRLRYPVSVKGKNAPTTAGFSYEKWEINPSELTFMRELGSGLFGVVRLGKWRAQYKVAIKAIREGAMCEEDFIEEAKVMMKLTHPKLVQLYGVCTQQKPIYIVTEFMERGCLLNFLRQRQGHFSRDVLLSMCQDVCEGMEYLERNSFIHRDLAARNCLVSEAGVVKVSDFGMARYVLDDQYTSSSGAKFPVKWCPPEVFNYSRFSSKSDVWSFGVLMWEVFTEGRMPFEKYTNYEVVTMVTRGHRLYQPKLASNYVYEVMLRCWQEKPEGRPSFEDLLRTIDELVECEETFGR

[4] = target: Phosphatidylinositol 4-phosphate 3-kinase C2 domain-containing subunit beta (Homo sapiens) (UniProt O00750); assay: Selectivity interaction (KinomeScan (DiscoverX)) EUB0000695a PIK3C2B; settings: at 100 nM
[5] = target: MAP kinase-activated protein kinase 3 (Homo sapiens) (UniProt Q16644); assay: Selectivity interaction (SelectScreen profiling (Invitrogen)) EUB0000607a MAPKAPK3; settings: at 2 µM
MAP kinase-activated protein kinase 3 (Homo sapiens), sequence (Q16644 whole entry, looked up): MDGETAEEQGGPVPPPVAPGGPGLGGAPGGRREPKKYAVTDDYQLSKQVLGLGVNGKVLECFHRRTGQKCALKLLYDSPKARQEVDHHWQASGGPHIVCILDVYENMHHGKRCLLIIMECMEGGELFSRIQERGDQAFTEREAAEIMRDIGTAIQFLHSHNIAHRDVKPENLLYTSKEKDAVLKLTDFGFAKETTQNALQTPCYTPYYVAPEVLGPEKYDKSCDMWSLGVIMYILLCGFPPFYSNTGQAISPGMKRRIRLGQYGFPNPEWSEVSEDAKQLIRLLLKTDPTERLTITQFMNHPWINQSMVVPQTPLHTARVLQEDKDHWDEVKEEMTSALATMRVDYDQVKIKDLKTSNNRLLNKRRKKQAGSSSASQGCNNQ

Phosphatidylinositol 4-phosphate 3-kinase C2 domain-containing subunit beta (Homo sapiens), sequence (O00750 whole entry, the tested form may be a part): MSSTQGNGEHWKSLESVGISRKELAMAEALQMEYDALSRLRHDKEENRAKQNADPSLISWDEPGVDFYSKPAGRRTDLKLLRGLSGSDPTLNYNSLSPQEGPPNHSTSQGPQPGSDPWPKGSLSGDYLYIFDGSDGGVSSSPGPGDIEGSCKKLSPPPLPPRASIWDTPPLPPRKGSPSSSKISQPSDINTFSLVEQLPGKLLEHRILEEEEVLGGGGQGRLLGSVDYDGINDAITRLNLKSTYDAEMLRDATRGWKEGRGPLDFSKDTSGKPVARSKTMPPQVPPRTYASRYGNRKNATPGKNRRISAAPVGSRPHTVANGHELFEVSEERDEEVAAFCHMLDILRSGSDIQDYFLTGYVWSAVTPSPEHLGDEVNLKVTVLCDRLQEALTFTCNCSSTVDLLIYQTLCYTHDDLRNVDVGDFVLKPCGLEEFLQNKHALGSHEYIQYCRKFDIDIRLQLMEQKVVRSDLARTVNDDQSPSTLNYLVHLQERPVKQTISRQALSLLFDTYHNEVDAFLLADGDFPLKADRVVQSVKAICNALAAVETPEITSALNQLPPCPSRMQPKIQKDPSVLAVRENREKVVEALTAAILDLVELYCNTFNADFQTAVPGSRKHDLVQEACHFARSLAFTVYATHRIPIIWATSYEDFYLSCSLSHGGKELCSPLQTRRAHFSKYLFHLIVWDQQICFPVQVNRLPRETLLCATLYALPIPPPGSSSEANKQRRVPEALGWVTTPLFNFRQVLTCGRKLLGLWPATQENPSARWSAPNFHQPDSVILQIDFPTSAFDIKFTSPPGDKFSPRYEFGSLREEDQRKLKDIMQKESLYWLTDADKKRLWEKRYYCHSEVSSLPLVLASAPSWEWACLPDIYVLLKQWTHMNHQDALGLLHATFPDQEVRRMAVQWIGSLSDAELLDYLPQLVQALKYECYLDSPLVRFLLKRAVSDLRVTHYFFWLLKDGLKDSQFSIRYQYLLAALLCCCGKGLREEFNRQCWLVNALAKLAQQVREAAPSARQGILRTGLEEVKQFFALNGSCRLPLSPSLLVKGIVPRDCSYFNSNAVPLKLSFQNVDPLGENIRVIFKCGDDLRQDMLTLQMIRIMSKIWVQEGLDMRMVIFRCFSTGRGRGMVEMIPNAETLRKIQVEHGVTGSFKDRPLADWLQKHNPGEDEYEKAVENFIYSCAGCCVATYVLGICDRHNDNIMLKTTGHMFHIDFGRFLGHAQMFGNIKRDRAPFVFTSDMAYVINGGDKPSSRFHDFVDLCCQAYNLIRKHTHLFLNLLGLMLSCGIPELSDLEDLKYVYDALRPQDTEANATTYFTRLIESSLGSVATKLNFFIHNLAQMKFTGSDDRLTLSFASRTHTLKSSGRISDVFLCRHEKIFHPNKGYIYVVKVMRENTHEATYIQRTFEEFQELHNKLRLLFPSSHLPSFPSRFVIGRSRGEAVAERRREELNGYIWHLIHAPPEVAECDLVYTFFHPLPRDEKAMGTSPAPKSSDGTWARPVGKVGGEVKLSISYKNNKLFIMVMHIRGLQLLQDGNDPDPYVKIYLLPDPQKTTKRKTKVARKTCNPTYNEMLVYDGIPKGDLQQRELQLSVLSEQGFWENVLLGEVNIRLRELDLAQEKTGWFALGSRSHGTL
Proto-oncogene tyrosine-protein kinase receptor Ret, sequence (P07949 whole entry): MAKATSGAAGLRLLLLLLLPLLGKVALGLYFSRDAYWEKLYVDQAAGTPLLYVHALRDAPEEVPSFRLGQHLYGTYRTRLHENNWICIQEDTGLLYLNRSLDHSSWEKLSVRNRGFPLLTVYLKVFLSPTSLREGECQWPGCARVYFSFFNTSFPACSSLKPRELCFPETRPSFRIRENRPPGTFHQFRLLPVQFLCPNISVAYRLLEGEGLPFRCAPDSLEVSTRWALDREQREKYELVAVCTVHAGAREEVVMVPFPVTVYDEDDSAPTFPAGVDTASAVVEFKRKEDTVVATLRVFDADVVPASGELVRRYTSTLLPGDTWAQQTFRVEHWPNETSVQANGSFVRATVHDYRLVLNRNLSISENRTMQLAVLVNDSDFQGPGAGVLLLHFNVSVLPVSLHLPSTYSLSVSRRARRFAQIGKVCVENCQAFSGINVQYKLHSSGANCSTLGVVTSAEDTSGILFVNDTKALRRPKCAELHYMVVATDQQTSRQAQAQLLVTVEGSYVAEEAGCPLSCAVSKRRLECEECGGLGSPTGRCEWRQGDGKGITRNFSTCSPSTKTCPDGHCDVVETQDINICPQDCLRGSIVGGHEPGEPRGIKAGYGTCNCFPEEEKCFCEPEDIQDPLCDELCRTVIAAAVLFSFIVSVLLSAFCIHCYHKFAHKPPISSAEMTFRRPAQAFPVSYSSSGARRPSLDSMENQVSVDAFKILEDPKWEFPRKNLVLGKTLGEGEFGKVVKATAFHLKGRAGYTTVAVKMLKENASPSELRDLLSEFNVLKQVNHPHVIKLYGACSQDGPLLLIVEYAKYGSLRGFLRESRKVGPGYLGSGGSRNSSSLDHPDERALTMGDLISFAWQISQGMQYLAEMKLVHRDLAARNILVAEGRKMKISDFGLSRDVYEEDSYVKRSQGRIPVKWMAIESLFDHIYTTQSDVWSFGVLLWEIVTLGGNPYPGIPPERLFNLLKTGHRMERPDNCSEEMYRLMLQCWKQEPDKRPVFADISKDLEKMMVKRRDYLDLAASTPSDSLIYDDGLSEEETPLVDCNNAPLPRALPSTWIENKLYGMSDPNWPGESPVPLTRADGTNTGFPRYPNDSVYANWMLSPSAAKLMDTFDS
SRSF protein kinase 1, sequence (Q96SB4 whole entry): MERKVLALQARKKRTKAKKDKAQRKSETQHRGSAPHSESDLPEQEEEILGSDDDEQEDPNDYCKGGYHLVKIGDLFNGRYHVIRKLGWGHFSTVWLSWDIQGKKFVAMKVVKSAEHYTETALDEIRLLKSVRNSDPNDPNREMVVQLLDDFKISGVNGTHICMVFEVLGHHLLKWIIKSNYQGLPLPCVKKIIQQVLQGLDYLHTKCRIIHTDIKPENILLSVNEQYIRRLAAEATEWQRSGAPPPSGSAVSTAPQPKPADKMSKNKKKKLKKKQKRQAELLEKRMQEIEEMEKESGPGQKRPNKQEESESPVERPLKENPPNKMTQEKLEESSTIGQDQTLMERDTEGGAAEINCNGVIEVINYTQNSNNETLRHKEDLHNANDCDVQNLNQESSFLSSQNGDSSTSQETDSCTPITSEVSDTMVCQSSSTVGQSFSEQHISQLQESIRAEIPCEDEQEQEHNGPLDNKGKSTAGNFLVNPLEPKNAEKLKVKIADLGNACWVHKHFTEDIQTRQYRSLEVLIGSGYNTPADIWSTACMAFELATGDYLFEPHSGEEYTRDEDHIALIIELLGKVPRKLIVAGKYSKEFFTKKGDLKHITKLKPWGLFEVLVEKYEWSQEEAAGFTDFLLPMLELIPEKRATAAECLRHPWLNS

In the case of `CC[C@@H]1[C@H](F)C(=O)N[C@@H]1COc1nccc2cc(C(N)=O)c(OC)cc12` [ZIMLOVISERTIB], the % of inhibition (SRSF protein kinase 1) is reported as 0.109%.

For `CCC(=O)N1CCN(c2ccc(-n3c(=O)ccc4cnc5ccc(-c6cnc7ccccc7c6)cc5c43)cc2C(F)(F)F)CC1`, the % of control [1] was 100%.

`Cc1ccc(-c2ccc3c(ccc4sc5c(c43)NC[C@@H](C)NC5=O)n2)cn1` gave a % of inhibition [2] of 46%.

`CN(C)CCOc1ccc(-c2nc(-c3ccncc3)c(-c3ccc4c(c3)CC/C4=N\O)[nH]2)cc1` was tested, and the % of control [3] was 91%.

For `Cc1cc(F)c(C(=O)Nc2cccc(-c3nncn3C(C)C)n2)cc1-n1cnc(C2CC2)c1`, the % of control [4] was 100%.

Work on `CNC(=O)Nc1ccc(-c2nc(N3CC4CCC(C3)O4)c3cnn(C4CCC5(CC4)OCCO5)c3n2)cc1` yielded a % of inhibition [5] of 1%.
